Molecular target: T1, Recombinant human mPGES-1 (Homo sapiens, UniProt O14684)
T1 sequence (O14684 1-152): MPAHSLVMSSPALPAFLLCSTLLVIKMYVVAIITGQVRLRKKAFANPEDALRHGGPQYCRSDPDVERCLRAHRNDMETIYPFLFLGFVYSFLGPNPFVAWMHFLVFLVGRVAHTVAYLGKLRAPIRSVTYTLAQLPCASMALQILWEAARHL
Test: In-vitro mPGES-1 enzyme inhibition assay (PGE2 formation from PGH2, HTRF detection)
Format: biochemical
Details: for inhibition at 1 µM: 1 μM test compound, read-out: Percentage inhibition at 1 μM; for inhibition at 1 µM / inhibition at 10 µM: recombinant human mPGES-1 microsomal fraction; for inhibition at 10 µM: 10 μM test compound, read-out: Percentage inhibition at 10 μM; for IC50: class symbols, selected examples
Procedure, shortened: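 IC50 values were derived by nonlinear regression of percent inhibition relative to enzyme reactions run without inhibitor. PGE2 formed from PGH2 with GSH was quantified by antibody-based HTRF after stannous chloride quench. Enzyme source was human mPGES-1 microsomes at 40-60 μg/mL protein; DMSO 0.5% (v/v).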

SMILES	inhibition at 1 µM [%]	inhibition at 10 µM [%]	IC50 [nM]
CC1(C)Cc2c(c(C(=O)Nc3cc(C(F)(F)F)ccc3F)cc3nc(Nc4c(F)cccc4Cl)[nH]c23)O1 [Example-111, 2-[(2-Chloro-6-fluorophenyl)amino]-N-[2-fluoro-5-(trifluoromethyl)phenyl]-7,7-dimethyl-7,8-dihydro-1H-furo[3,2-e]benzimidazole-5-carboxamide]	96.4	99.8	< 50
CC1(C)Cc2c(c(C(=O)Nc3ccc(C(F)(F)F)cc3F)cc3nc(Nc4c(F)cccc4Cl)[nH]c23)O1 [Example-112, 2-[(2-Chloro-6-fluorophenyl)amino]-N-[2-fluoro-4-(trifluoromethyl)phenyl]-7,7-dimethyl-7,8-dihydro-1H-furo[3,2-e]benzimidazole-5-carboxamide]	96.8	96.2	< 50
Cc1cc(C(F)(F)F)ccc1NC(=O)c1cc2nc(Nc3c(F)cccc3Cl)[nH]c2c2c1OC(C)(C)C2 [Example-113, 2-[(2-Chloro-6-fluorophenyl)amino]-7,7-dimethyl-N-[2-methyl-4-(trifluoromethyl)phenyl]-7,8-dihydro-1H-furo[3,2-e]benzimidazole-5-carboxamide]	99.4	98.7	< 50
CC1(C)Cc2c(c(C(=O)Nc3ccc(C(C)(C)C)cc3)cc3nc(Nc4c(F)cccc4Cl)[nH]c23)O1 [Example-114, N-(4-tert-Butylphenyl)-2-[(2-chloro-6-fluorophenyl)amino]-7,7-dimethyl-7,8-dihydro-1H-furo[3,2-e]benzimidazole-5-carboxamide]	99.4	99.1	< 50
CC1(C)Cc2c(c(C(=O)Nc3ccc(OC(F)F)nc3)cc3nc(Nc4c(F)cccc4Cl)[nH]c23)O1 [Example-115, 2-[(2-Chloro-6-fluorophenyl)amino]-N-[6-(difluoromethoxy)pyridin-3-yl]-7,7-dimethyl-7,8-dihydro-1H-furo[3,2-e]benzimidazole-5-carboxamide]	100	100	< 50
CC1(C)Cc2c(c(C(=O)NC3(c4ccc(C(F)(F)F)cc4)CC3)cc3nc(Nc4c(F)cccc4Cl)[nH]c23)O1 [Example-116, 2-[(2-Chloro-6-fluorophenyl)amino]-7,7-dimethyl-N-{1-[4-(trifluoromethyl)phenyl]cyclopropyl}-7,8-dihydro-1H-furo[3,2-e]benzimidazole-5-carboxamide]	96.9	99.8	< 50
CC1(C)Cc2c(c(C(=O)Nc3ccc(F)cc3C(F)(F)F)cc3nc(Nc4c(F)cccc4Cl)[nH]c23)O1 [Example-117, 2-[(2-Chloro-6-fluorophenyl)amino]-N-[4-fluoro-2-(trifluoromethyl)phenyl]-7,7-dimethyl-7,8-dihydro-1H-furo[3,2-e]benzimidazole-5-carboxamide]	100	98.7	< 50
CC1(C)Cc2c(c(C(=O)NC3(c4ccccc4C(F)(F)F)CC3)cc3nc(Nc4c(F)cccc4Cl)[nH]c23)O1 [Example-118, 2-[(2-Chloro-6-fluorophenyl)amino]-7,7-dimethyl-N-{1-[2-(trifluoromethyl)phenyl]cyclopropyl}-7,8-dihydro-1H-furo[3,2-e]benzimidazole-5-carboxamide]	97	98.7	> 100
CC1(C)Cc2c(c(C(=O)Nc3cccc(C(C)(F)F)c3)cc3nc(Nc4c(F)cccc4Cl)[nH]c23)O1 [Example-119, 2-[(2-Chloro-6-fluorophenyl)amino]-N-[3-(1,1-difluoroethyl)phenyl]-7,7-dimethyl-7,8-dihydro-1H-furo[3,2-e]benzimidazole-5-carboxamide]	98.1	100	< 50
